Reference: PubChem BioAssay (NCI)
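In this assay, cells in 96-well plates receive the compound at five concentrations for 48 hours. Endpoints are linearly interpolated between the surrounding concentrations. At the TGI there is no net growth.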

Key:
Test in all cases: growth of human tumour cells (NCI), 48 h
786-0 renal = tested on: 786-0 renal
A498 renal = tested on: A498 renal
A549 NSCLC = tested on: A549 NSCLC
ACHN renal = tested on: ACHN renal
BT-549 breast = tested on: BT-549 breast
CAKI-1 renal = tested on: CAKI-1 renal
CCRF-CEM leukemia = tested on: CCRF-CEM leukemia
COLO 205 colon = tested on: COLO 205 colon
DU-145 prostate = tested on: DU-145 prostate
EKVX NSCLC = tested on: EKVX NSCLC
HCC-2998 colon = tested on: HCC-2998 colon
HCT-116 colon = tested on: HCT-116 colon
HCT-15 colon = tested on: HCT-15 colon
HL-60(TB) leukemia = tested on: HL-60(TB) leukemia
HOP-62 NSCLC = tested on: HOP-62 NSCLC
HOP-92 NSCLC = tested on: HOP-92 NSCLC
HS 578T breast = tested on: HS 578T breast
HT29 colon = tested on: HT29 colon
IGROV1 ovarian = tested on: IGROV1 ovarian
K-562 leukemia = tested on: K-562 leukemia
KM12 colon = tested on: KM12 colon
LOX IMVI melanoma = tested on: LOX IMVI melanoma
M14 melanoma = tested on: M14 melanoma
MALME-3M melanoma = tested on: MALME-3M melanoma
MCF7 breast = tested on: MCF7 breast
MDA-MB-231 breast = tested on: MDA-MB-231 breast
MDA-MB-435 = tested on: MDA-MB-435
MDA-N = tested on: MDA-N
MOLT-4 leukemia = tested on: MOLT-4 leukemia
NCI-H226 lung = tested on: NCI-H226 lung
NCI-H23 lung = tested on: NCI-H23 lung
NCI-H460 lung = tested on: NCI-H460 lung
NCI-H522 lung = tested on: NCI-H522 lung
NCI/ADR-RES ovarian = tested on: NCI/ADR-RES ovarian
OVCAR-3 ovarian = tested on: OVCAR-3 ovarian
OVCAR-4 ovarian = tested on: OVCAR-4 ovarian
OVCAR-5 ovarian = tested on: OVCAR-5 ovarian
OVCAR-8 ovarian = tested on: OVCAR-8 ovarian
PC-3 prostate = tested on: PC-3 prostate
RXF 393 renal = tested on: RXF 393 renal
SF-268 CNS = tested on: SF-268 CNS
SF-295 CNS = tested on: SF-295 CNS
SF-539 CNS = tested on: SF-539 CNS
SK-MEL-2 melanoma = tested on: SK-MEL-2 melanoma
SK-MEL-28 melanoma = tested on: SK-MEL-28 melanoma
SK-MEL-5 melanoma = tested on: SK-MEL-5 melanoma
SK-OV-3 ovarian = tested on: SK-OV-3 ovarian
SN12C renal = tested on: SN12C renal
SNB-19 CNS = tested on: SNB-19 CNS
SNB-75 CNS = tested on: SNB-75 CNS
T-47D breast = tested on: T-47D breast
TK-10 renal = tested on: TK-10 renal
U251 CNS = tested on: U251 CNS
UACC-257 melanoma = tested on: UACC-257 melanoma
UACC-62 melanoma = tested on: UACC-62 melanoma
UO-31 renal = tested on: UO-31 renal
SR leukemia = tested on: SR leukemia
SW-620 colon = tested on: SW-620 colon

Q: `NC1CC(=O)c2csc(Cl)c21` (centres undefined) was tested. Which TGI (786-0 renal) did it give?
A: Its TGI is 2.96 µM.

Q: And the TGI (A498 renal)?
A: Its TGI is 33.5 µM.

Q: What about the TGI (A549 NSCLC) of the same molecule?
A: Its TGI is 36.7 µM.

Q: And the TGI (ACHN renal)?
A: Its TGI is 10.3 µM.

Q: What about the TGI (BT-549 breast) of the same molecule?
A: The TGI was 33.4 µM.

Q: What about the TGI (CAKI-1 renal) of the same molecule?
A: Its TGI is 3.68 µM.

Q: And the TGI (CCRF-CEM leukemia)?
A: The TGI was 3.68 µM.

Q: What about the TGI (COLO 205 colon) of the same molecule?
A: The TGI was 12.1 µM.

Q: And the TGI (DU-145 prostate)?
A: Its TGI is 20.9 µM.

Q: And the TGI (EKVX NSCLC)?
A: Its TGI is 35.9 µM.

Q: What about the TGI (HCC-2998 colon) of the same molecule?
A: Its TGI is 33.9 µM.

Q: What about the TGI (HCT-116 colon) of the same molecule?
A: The TGI was 14.1 µM.

Q: And the TGI (HCT-15 colon)?
A: Its TGI is 14.2 µM.

Q: What about the TGI (HL-60(TB) leukemia) of the same molecule?
A: The TGI was 13.1 µM.

Q: And the TGI (HOP-62 NSCLC)?
A: Its TGI is 29.1 µM.

Q: And the TGI (HOP-92 NSCLC)?
A: The TGI was 25.4 µM.

Q: And the TGI (HS 578T breast)?
A: The TGI was over 100 µM.

Q: And the TGI (HT29 colon)?
A: The TGI was 29.2 µM.

Q: And the TGI (IGROV1 ovarian)?
A: The TGI was 42.2 µM.

Q: And the TGI (K-562 leukemia)?
A: Its TGI is over 100 µM.

Q: What about the TGI (KM12 colon) of the same molecule?
A: Its TGI is 17.4 µM.

Q: And the TGI (LOX IMVI melanoma)?
A: Its TGI is 24.1 µM.

Q: What about the TGI (M14 melanoma) of the same molecule?
A: The TGI was 23.7 µM.

Q: And the TGI (MALME-3M melanoma)?
A: The TGI was 7.56 µM.

Q: And the TGI (MCF7 breast)?
A: The TGI was over 100 µM.

Q: What about the TGI (MDA-MB-231 breast) of the same molecule?
A: The TGI was 22.5 µM.

Q: What about the TGI (MDA-MB-435) of the same molecule?
A: Its TGI is 27.3 µM.

Q: And the TGI (MDA-N)?
A: Its TGI is 22 µM.

Q: What about the TGI (MOLT-4 leukemia) of the same molecule?
A: The TGI was 3.87 µM.

Q: And the TGI (NCI-H226 lung)?
A: The TGI was 94.6 µM.

Q: And the TGI (NCI-H23 lung)?
A: Its TGI is 54 µM.

Q: What about the TGI (NCI-H460 lung) of the same molecule?
A: The TGI was 49.5 µM.

Q: What about the TGI (NCI-H522 lung) of the same molecule?
A: The TGI was 3.32 µM.

Q: And the TGI (NCI/ADR-RES ovarian)?
A: Its TGI is over 86.7 µM.

Q: And the TGI (OVCAR-3 ovarian)?
A: Its TGI is 30.9 µM.

Q: What about the TGI (OVCAR-4 ovarian) of the same molecule?
A: Its TGI is 68.8 µM.

Q: And the TGI (OVCAR-5 ovarian)?
A: Its TGI is 37.1 µM.

Q: What about the TGI (OVCAR-8 ovarian) of the same molecule?
A: Its TGI is 23 µM.

Q: And the TGI (PC-3 prostate)?
A: The TGI was 23.9 µM.

Q: What about the TGI (RXF 393 renal) of the same molecule?
A: The TGI was 17.8 µM.

Q: What about the TGI (SF-268 CNS) of the same molecule?
A: The TGI was 31.8 µM.

Q: What about the TGI (SF-295 CNS) of the same molecule?
A: Its TGI is 32 µM.

Q: And the TGI (SF-539 CNS)?
A: Its TGI is 9.56 µM.

Q: And the TGI (SK-MEL-2 melanoma)?
A: Its TGI is 30.7 µM.

Q: What about the TGI (SK-MEL-28 melanoma) of the same molecule?
A: The TGI was 46.3 µM.

Q: And the TGI (SK-MEL-5 melanoma)?
A: Its TGI is 35.3 µM.

Q: What about the TGI (SK-OV-3 ovarian) of the same molecule?
A: The TGI was 31.1 µM.

Q: And the TGI (SN12C renal)?
A: Its TGI is 14.2 µM.

Q: What about the TGI (SNB-19 CNS) of the same molecule?
A: The TGI was 33.2 µM.

Q: And the TGI (SNB-75 CNS)?
A: The TGI was 31.8 µM.

Q: What about the TGI (T-47D breast) of the same molecule?
A: The TGI was over 23.6 µM.

Q: What about the TGI (TK-10 renal) of the same molecule?
A: Its TGI is 24.1 µM.

Q: What about the TGI (U251 CNS) of the same molecule?
A: Its TGI is 22.9 µM.

Q: And the TGI (UACC-257 melanoma)?
A: Its TGI is 29 µM.

Q: What about the TGI (UACC-62 melanoma) of the same molecule?
A: Its TGI is 24.7 µM.

Q: And the TGI (UO-31 renal)?
A: Its TGI is 12.7 µM.

Q: Which results are given for `CC(CO)(CO)Nc1ncnc2ccccc12`?
A: TGI (786-0 renal): > 100 µM; TGI (A498 renal): > 100 µM; TGI (A549 NSCLC): > 100 µM; TGI (ACHN renal): > 100 µM; TGI (BT-549 breast): > 100 µM; TGI (CAKI-1 renal): > 100 µM; TGI (CCRF-CEM leukemia): > 100 µM; TGI (DU-145 prostate): > 100 µM; TGI (EKVX NSCLC): > 100 µM; TGI (HCC-2998 colon): > 100 µM; TGI (HCT-116 colon): > 100 µM; TGI (HCT-15 colon): > 100 µM; TGI (HOP-62 NSCLC): > 100 µM; TGI (HOP-92 NSCLC): > 100 µM; TGI (HS 578T breast): > 100 µM; TGI (HT29 colon): > 100 µM; TGI (IGROV1 ovarian): > 100 µM; TGI (K-562 leukemia): > 100 µM; TGI (KM12 colon): > 100 µM; TGI (LOX IMVI melanoma): > 100 µM; TGI (M14 melanoma): > 100 µM; TGI (MALME-3M melanoma): > 100 µM; TGI (MDA-MB-231 breast): > 100 µM; TGI (MDA-MB-435): > 100 µM; TGI (MDA-N): > 100 µM; TGI (MOLT-4 leukemia): > 100 µM; TGI (NCI-H226 lung): > 100 µM; TGI (NCI-H23 lung): > 100 µM; TGI (NCI-H460 lung): > 100 µM; TGI (NCI-H522 lung): > 100 µM; TGI (NCI/ADR-RES ovarian): > 100 µM; TGI (OVCAR-3 ovarian): > 100 µM; TGI (OVCAR-4 ovarian): > 100 µM; TGI (OVCAR-5 ovarian): > 100 µM; TGI (OVCAR-8 ovarian): > 100 µM; TGI (PC-3 prostate): > 100 µM; TGI (RXF 393 renal): > 100 µM; TGI (SF-268 CNS): > 100 µM; TGI (SF-295 CNS): > 100 µM; TGI (SK-MEL-2 melanoma): > 100 µM; TGI (SK-MEL-28 melanoma): > 100 µM; TGI (SK-MEL-5 melanoma): > 100 µM; TGI (SN12C renal): > 100 µM; TGI (SNB-19 CNS): > 100 µM; TGI (SNB-75 CNS): > 100 µM; TGI (SR leukemia): > 100 µM; TGI (SW-620 colon): > 100 µM; TGI (T-47D breast): > 100 µM; TGI (TK-10 renal): > 100 µM; TGI (U251 CNS): > 100 µM; TGI (UACC-257 melanoma): > 100 µM; TGI (UACC-62 melanoma): > 100 µM; TGI (UO-31 renal): > 100 µM
